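Test compounds were applied to cells in 96-well plates for 48 hours at 5 doses. The concentration for 50% growth inhibition is given as GI50.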 The source made the active and inactive calls. Cut-off read from the data, not from the text of the source: active = GI50 up to about 1.1 µM and inactive = higher.
Assays:
BT-549 = assay: inhibition of tumour cell growth, NCI panel, 48 h
MDA-MB-231 = assay: inhibition of tumour cell growth, NCI panel, 48 h

| Structure (SMILES) | GI50 (BT-549) | GI50 (MDA-MB-231) |
| --- | --- | --- |
| CCn1c2c(c3ccccc3c1=O)C(=O)c1ccccc1-2 | > 100 µM (inactive) | 85.7 µM (inactive) |
| CSc1nc(Cl)c(Br)c(Nc2cnc(O)nc2O)n1 |  | 13.6 µM (inactive) |
| NC(=O)NNc1nc2ccccc2c(=O)n1NC(=O)C(=O)Nc1ccc(Cl)cc1Cl | > 100 µM (inactive) | > 100 µM (inactive) |
| O=C(CC(C(=O)c1ccco1)c1ccsc1)c1ccco1 (stereo unspecified) |  | 56.8 µM (inactive) |
| COC(=O)/C(=C\Nc1cccc(C)n1)S(=O)(=O)c1ccc(C)cc1 |  | 64.3 µM (inactive) |
| CC1(C)CCCCCCCCCC2CC2CCC(C)(C)C1=O (stereo unspecified) | 34.4 µM (inactive) | 17.3 µM (inactive) |
| O=c1[nH]c(=O)n(COCCOCc2ccccc2)cc1Nc1ccccc1 |  | > 100 µM (inactive) |
| CCNC(=O)c1cc(/C=C/c2ccc([N+](=O)[O-])o2)nc2ccccc12 | 29.8 µM (inactive) | 14.9 µM (inactive) |
| CC1CC(=O)N(N(C)C)C2(C#N)C(=O)N=C(N)C12C#N (stereo unspecified) |  | > 100 µM (inactive) |
| CC(C)=CCC12Cc3ccc(O)cc3C(C(C)CN1)C2C (stereo unspecified) |  | > 100 µM (inactive) |
| Cn1c(S)nc(C(N)=O)c1N | > 100 µM (inactive) | > 100 µM (inactive) |
| Cc1cn(C2CC(OC(c3ccccc3)(c3ccccc3)c3ccccc3)C(COC(c3ccccc3)(c3ccccc3)c3ccccc3)O2)c(=O)[nH]c1=O (stereo unspecified) | 27.5 µM (inactive) | 37.7 µM (inactive) |
| COc1cc(C2c3cccc4cccc(c34)C3CCC(=O)N32)cc(OC)c1O (stereo unspecified) | > 50 µM (inactive) |  |
| CC(C)(C)OC(=O)N(CCCCNC(=O)OCc1ccccc1)CCCNC(=O)OCc1ccccc1 | 53 µM (inactive) | 90.2 µM (inactive) |
| N#CC(Cc1ccccc1)N(CCC1=CCCCC1)C(c1ccccc1)c1ccccc1 (stereo unspecified) | > 100 µM (inactive) | > 100 µM (inactive) |
| COc1cc(S(=O)(=O)Nc2ccc(-c3csc(N4C(=O)C(Cl)C4c4cccs4)n3)cc2)ccc1Cl (stereo unspecified) | 87.7 µM (inactive) |  |

| Structure (SMILES) | GI50 (BT-549) | GI50 (MDA-MB-231) |
| --- | --- | --- |
| C[N+]1(C)CC=C(N2CCOCC2)CC1 |  | > 10 µM (inactive) |
| COc1c(C(=O)NCCN(CCNC(=O)c2cccc(-c3cccc(C(=O)N(C)C)c3OC)c2OC)CCNC(=O)c2cccc(-c3cccc(C(=O)N(C)C)c3OC)c2OC)cccc1-c1cccc(C(=O)N(C)C)c1OC |  | 32.4 µM (inactive) |
| OCC1OC(c2scc3c(=S)[nH]cnc23)C(O)C1O (stereo unspecified) | 27.5 µM (inactive) | 4.61 µM (inactive) |
| CCCCCCCCCCC[N+]1(Cc2ccccc2)CC2CCN(Cc3ccccc3)CC2C1 (stereo unspecified) | 0.305 µM (active) |  |
| COC(=O)C1CC23C4=C(CCC41)CCC1CN4CC(C)C(CC(OC(C)=O)C12COC(C)=O)C43O (stereo unspecified) | > 100 µM (inactive) | > 100 µM (inactive) |
| CC(CO)CCNc1ncnc2c1ncn2CCC(=O)OC(C)(C)C (stereo unspecified) |  | > 100 µM (inactive) |
| Cc1nc(C)c(N2CCN(CN)CC2)c(O)n1 | > 100 µM (inactive) | > 100 µM (inactive) |
| Cc1nc2c(nc1C)-c1c(c3c(n1Cc1ccccc1)C(=O)CCC3)C(=O)C2=O | 2.86 µM (inactive) | 3.61 µM (inactive) |
| COc1ccc(-c2nc3ccccc3s2)cc1OC | 15.4 µM (inactive) | 19.7 µM (inactive) |
| Cc1ccc(C(=O)Nc2ccc(CP(=O)(O)O)cc2)cc1NC(=O)c1cccc(NC(=O)Nc2cccc(C(=O)Nc3cc(C(=O)Nc4ccc(CP(=O)(O)O)cc4)ccc3C)c2)c1 | > 100 µM (inactive) | > 100 µM (inactive) |
| C=C1C(OC2O[C@@H]3O[C@@]4(C)CC[C@H]5[C@H](C)CC[C@@H](C2=C)[C@@]35O4)O[C@@H]2O[C@@]3(C)CC[C@H]4[C@H](C)CC[C@@H]1[C@@]24O3 (stereo partly specified) | > 50 µM (inactive) | > 50 µM (inactive) |
| O=C(O)CNc1ccc(C(=O)O)cc1 | > 100 µM (inactive) | > 100 µM (inactive) |
| COc1nc(C#CC2(O)CCCCC2)nc(OC)n1 | 14.5 µM (inactive) | 3.34 µM (inactive) |
| O=C1Nc2ccc([N+](=O)[O-])cc2/C1=N/NC(=S)Nc1ccccc1 | 3.88 µM (inactive) | 12.3 µM (inactive) |
| CC(C)=Cc1cc2c(cc1O)CCC1C2CC[C@@]2(C)C1CC[C@@H]2O (stereo partly specified) |  | 16.3 µM (inactive) |
| Nc1ccc(/N=N/c2ccccc2)cc1 | 65.6 µM (inactive) | 32.7 µM (inactive) |

Source: ChEMBL document CHEMBL1201862, “PubChem BioAssay data set” (2004)
